Test results taken from patent publication US20240284907A1, “NOVEL DERIVATIVES OF NON-CODED AMINO ACIDS AND THEIR USE AS HERBICIDES” (FortePhest LTD., priority 2021, published 2024).

Legend:
Assay type in all cases: in vivo
[1] = test system: Seeds of Lettuce R. (Super-Jericho); assay: Filter paper bioassay with lettuce seeds: germination and early plant development, Minimal Effective Concentration (MEC); conditions: lettuce seeds on filter paper, 0 to 1 mmol/l, visually assessed after 6 days
Summary of the method: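 Non-sterilized Super-Jericho lettuce seeds, 10 per dish, on filter paper wetted with aqueous test solution at 0–1 mmol/l. Kept 48 h dark, then 4 days at 6/18 dark/light. MEC is the lowest concentration causing no germination or radicle/shoot malformation by visual scoring at day 6; at least two repeats.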

[2] = test system: Seeds of Lettuce R. (Super-Jericho); assay: Filter paper bioassay with lettuce seeds: germination, Fully Effective Concentration (FEC); conditions: lowest concentration mostly preventing lettuce seed germination, assessed after 6 days
Excerpt: Materials: Seeds of Lettuce R. (Super-Jericho, non-sterilized) were obtained from Ben Shahar Moshe Ltd., 99% purity. The test compounds listed in the Table 2 below were synthetized de novo or purchased from different vendors.
Filter Paper Bioassays with Lettuce seeds: The protocol is following Bertin et al. 2009 and Movellan et al. 2014 with specified modifications as described below.
Seeds were placed on Whatman no. 1 filter paper (Whatman, Middlesex, U.K.) in Petri dishes (10 seeds per plate) with 2.0 ml of aqueous solution of a test material in concentration ranged from 0 (control) to 1 mmol/l were placed in a tray tilted at 45°. The trays were kept in dark for 48 hours and then transferred to the growth chamber with 6/18 dark/light cycle for 4 days. Each experiment was performed at least with two repeats.
The development of plants' radicle and shoots were visually assessed 6 days after the beginning of the test to determine Fully Effective Concentration (FEC) of a test material. In the context of the invention, FED is defined as the lowest concentration level of a test material that mostly preventing seeds germination.

[3] = test system: Romaine lettuce (Lactuca sativa L.) plants; assay: Post-emergence herbicidal activity on potted Romaine lettuce plants (soil or foliar application); conditions: lettuce at 2 to 3 leaves, two weeks after treatment
Method: The tests were performed on Romaine lettuce (Lactuca sativa L.) plants at the stage 2 to 3 leaves. The plants were grown in mini-pots packed with soil, dimensions 2×2×5 cm, one plant per mini-pot. Test compounds were dissolved in 0.1% aqueous solution water solution of Silwet adjuvant to final concentrations ranging from 0 (Control) to 0.0001%. The test compounds were applied on soil (1 ml per pot) or foliar with airbrush (0.1 ml per pot). Each concentration was tested on 20 plants. Two weeks after the treatment the herbicidal effects of the respective test material were visually evaluated (aboveground part and roots. Then the aboveground part of the plants was neatly cut and weighed (wet weight) to assess the growth inhibition caused by the test compound. The growth inhibition (GI) was calculated as following: […]
Where Mt and Mc are median wet weight of treated and control plants, respectively. In the context of the invention, the herbicidal effect was assessed by concentration of the compound causing more than 85% of Growth Inhibition (GI) or irreversible damage of the plants (Table 3). Herbicidal activity of selected DHAAs is summarized in Table 4 (soil application) and Table 5 (Foliar application).

Compound | Score (activity score of Minimal Effective Concentration, MEC) [1] | FEC (Fully Effective Concentration) [2] [mM] | Score (test material causing more than 85% of Growth Inhibition or irreversible plant damage) ([3]; soil application) | Score (test material causing more than 85% of Growth Inhibition or irreversible plant damage) ([3]; foliar application)
N#Cc1cscc1C(F)(F)C(=O)O [compound 5779, (4-cyanothiophen-3-yl)(difluoro)acetic acid] | Strong (0.01 mM) | 1.000 | – | –
ethyl 2-(2-chloro-1,3-thiazol-4-yl)-2,2-difluoroacetate [compound 5784] | very strong | 0.050 | – | –
O=C(O)CNC(=O)C(F)(F)c1cc(Cl)sc1Cl [compound 5644, [2-(2,5-dichlorothiophen-3-yl)(difluoro)acetamido]acetic acid] | Strong (0.01 mM) | 1.000 | – | –
NC(=O)Cc1cc(Cl)sc1Cl [compound 5609, 2-(2,5-dichlorothiophen-3-yl)acetamide] | Strong (0.01 mM) | 1.000 | – | –
2-chloro-4-(2-hydrazinylethyl)-1,3-thiazole [compound 5702] | Moderate (0.1 mM) | 2.000 | – | –
O=C(O)/C=C/c1sc(Cl)nc1Cl [compound 5622, (2E)-3-(2,4-dichloro-1,3-thiazol-5-yl)prop-2-enoic acid] | Moderate (0.1 mM) | 1.000 | – | –
3-(2,5-dichlorothiophen-3-yl)-2-oxopropanoic acid [compound 5612] | Strong (0.01 mM) | 0.100 | – | –
2-oxo-2-phenylethyl(2-chloro-1,3-thiazol-4-yl)(difluoro)acetate [compound 5741] | very strong | 0.050 | – | –
O=C(O)C(F)(F)c1nc(Cl)sc1F [compound 5751, (2-chloro-5-fluoro-1,3-thiazol-4-yl)(difluoro)acetic acid] | strong.strong | 0.100 | – | –
CONCCc1cc(Cl)sc1Cl [compound 5670, 2-(2,5-dichlorothiophen-3-yl)-N-methoxyethan-1-amine] | Moderate (0.1 mM) | – | moderate (0.5) | –
O=C(O)/C(F)=C(\F)c1ccc(Br)nc1 [compound 6638, (2E)-3-(6-bromopyridin-3-yl)-2,3-difluoroprop-2-enoic acid] | Moderate (0.1 mM) | – | moderate (0.5) | –
2-oxo-2-(pyridin-2-yl)ethyl(2-chloro-1,3-thiazol-4-yl)(difluoro)acetate [compound 5740] | very strong | 0.050 | – | –
2,2-difluoro-2-[5-(trifluoromethyl)-1,3-thiazol-2-yl]acetic acid [compound 5710] | Strong (0.01 mM) | 0.100 | – | –
Cc1sc(C(F)(F)F)nc1C(F)(F)C(=O)O [compound 5717, 2,2-difluoro-2-[5-methyl-2-(trifluoromethyl)-1,3-thiazol-4-yl]acetic acid] | Strong (0.01 mM) | 0.100 | – | –
CCOC(=O)C(F)(F)c1csc(C(F)(F)F)n1 [compound 5781] | Strong (0.01 mM) | – | – | strong (0.01 to 0.05)
2-(2-chloro-1,3-thiazol-4-yl)-2,2-difluoroethan-1-ol [compound 5724] | Moderate (0.1 mM) | – | strong (0.01 to 0.05) | –
difluoro(6-fluoropyridin-2-yl)acetic acid [compound 6664] | Strong (0.01 mM) | – | strong (0.01 to 0.05) | –

Compound | Score (activity score of Minimal Effective Concentration, MEC) [1] | FEC (Fully Effective Concentration) [2] [mM] | Score (test material causing more than 85% of Growth Inhibition or irreversible plant damage) ([3]; soil application) | Score (test material causing more than 85% of Growth Inhibition or irreversible plant damage) ([3]; foliar application)
2,2-difluoro[2-(trifluoromethyl)-1,3-thiazol-5-yl]acetic acid [compound 5700] | Moderate (0.1 mM) | 2.000 | – | –
ethyl 2-(2-bromo-1,3-thiazol-4-yl)acetate [compound 5663] | Moderate (0.1 mM) | – | moderate (0.5) | strong (0.01 to 0.05)
O=C(Cc1csc(Cl)n1)OCc1ccccc1 [compound 5758, benzyl 2-(2-chloro-1,3-thiazol-4-yl)acetate] | Strong (0.01 mM) | 0.100 | – | –
O=C(O)C(F)(F)c1cccc(Cl)n1 [compound 6667, (6-chloropyridin-2-yl)(difluoro)acetic acid] | Strong (0.01 mM) | – | strong (0.01 to 0.05) | –
2-(2,5-dichlorothiophen-3-yl)-2,2-difluoroacetamide [compound 5636] | Strong (0.01 mM) | 0.100 | – | –
O=C(OCc1ccccc1)C(F)(F)c1csc(Cl)n1 [compound 5762, benzyl (2-chloro-1,3-thiazol-4-yl)(difluoro)acetate] | very strong | 0.010 | – | –
NCCCCc1cc(Cl)sc1Cl [compound 5657, 4-(2,5-dichlorothiophen-3-yl)butan-1-amine] | Moderate (0.1 mM) | 0.100 | – | –
(2E)-3-(2-bromopyridin-4-yl)-N-(4-hydroxyphenyl)prop-2-enamide [compound 6610] | Moderate (0.1 mM) | – | moderate (0.5) | –
benzyl (6-bromopyridin-2-yl)(difluoro)acetate [compound 6646] | Strong (0.01 mM) | – | strong (0.01 to 0.05) | –
(2-bromopyridin-4-yl)acetic acid [compound 678] | Strong (0.01 mM) | – | weak (1.0) | –
[6-chloro-5-(trifluoromethyl)pyridin-2-yl](difluoro)acetic acid [compound 6671] | Strong (0.01 mM) | – | strong (0.01 to 0.05) | –
COC(=O)C(Cl)c1cc(Cl)sc1Cl (centres unmarked) [compound 5656, methyl 2-chloro-2-(2,5-dichlorothiophen-3-yl)acetate] | – | – | moderate (0.5) | –
2-(5-chlorothiophen-3-yl)-2,2-difluoroacetic acid [compound 5625] | Strong (0.01 mM) | – | strong (0.01 to 0.05) | strong (0.01 to 0.05)
NC(=O)CCCc1cc(Cl)sc1Cl [compound 5600, 4-(2,5-dichlorothiophen-3-yl)butanamide] | Weak (Higher than 0.1 mM) | – | moderate (0.5) | –
CCOC(=O)Cc1nc(Br)sc1C [compound 5661, ethyl 2-(2-bromo-5-methyl-1,3-thiazol-4-yl)acetate] | Moderate (0.1 mM) | – | moderate (0.5) | moderate (0.5)
O=C(O)Cc1cc(Br)nc(Br)c1 [compound 689, 2-(2,6-dibromopyridin-4-yl)acetic acid] | Moderate (0.1 mM) | – | moderate (0.5) | –
